In patent US8486919B2, “4-alkylresorcinol derivative and external preparation for skin containing the same” (Shiseido Company, Ltd., priority 2010, dated 2013):

Tests used:
Mouse B16 melanoma cells [1] = assay: Cell proliferation test (cytotoxicity test, Alamar Blue); format: cell-based; conditions: 3 days, ratio to solvent-only group
Procedure: (§1) The melanin production inhibitory effect and the cytotoxicity was studied according to the following method.
(§2) (1) Inoculation of Cells and Addition of Test Substances
(§3) Mouse B16 melanoma cells were inoculated in a six well plate at 100,000 cells/well. The next day, test substance solutions (solvent: dimethylsulfoxide) were added thereto and then subjected to the melanin production inhibition test and cytotoxicity test.
(2) Cell Proliferation Test
Three days after the addition of the test substance solution, the medium was removed by aspiration. Then 1 mL of EMEM medium containing 10% Alamar Blue solution was added, and a reaction was allowed to proceed at 37° C. After 30 minutes, 100 μL of the reaction mixture was transferred to a 96 well plate and fluorescence was measured at an excitation wavelength of 544 nm and a measurement wavelength of 590 nm. Using the value thus measured as a relative value of cell count, a ratio of the cell count (% cell count) of the test substance-added group to the test substance-absent group (group in which only the solvent was added) was calculated. The higher the % cell count, the lower the cytotoxicity.

Mouse B16 melanoma cells [2] = assay: Melanin production inhibition test; format: cell-based; conditions: 3 days, ratio to solvent-only group
Procedure: as §1, §2, §3
(3) Melanin Production Inhibition Test
Three days after the addition of the test substance solution, the medium was removed by aspiration. The cells were washed with a buffer (50 mM phosphate buffer, pH6.8), and then lysed by addition of 1M NaOH to measure an absorbance at 475 nm. Using the value thus measured as a relative value of the melanin amount, a ratio of the melanin amount (%) of the test substance-added group to the test substance-absent group (group in which only the solvent was added) was calculated. The lower the ratio of the melanin amount, the higher the melanin production-inhibitory effect.

[3] = final concentration of test compound 0.9 μM
[4] = final concentration of test compound 8.5 μM
[5] = final concentration of test compound 28 μM
[6] = final concentration of test compound 1.0 μM
[7] = final concentration of test compound 9.6 μM
[8] = final concentration of test compound 32 μM
[9] = final concentration of test compound 2.0 μM
[10] = final concentration of test compound 6.6 μM
[11] = final concentration of test compound 66 μM
[12] = final concentration of test compound 2.2 μM
[13] = final concentration of test compound 22 μM
[14] = final concentration of test compound 220 μM
[15] = final concentration of test compound 10 μM
[16] = final concentration of test compound 33 μM
[17] = final concentration of test compound 1.6 μM
[18] = final concentration of test compound 16 μM
[19] = final concentration of test compound 52 μM

## O=P(O)(O)Oc1ccc(C2CCCCC2)c(OP(=O)(O)O)c1 [Compound 3, 1,3-bisphosphonooxy-4-cyclohexylbenzene]
Mouse B16 melanoma cells [1]; [3]
  Cell Count (%): 102%
Mouse B16 melanoma cells [1]; [4]
  Cell Count (%): 105%
Mouse B16 melanoma cells [1]; [5]
  Cell Count (%): 101%
Mouse B16 melanoma cells [2]; [3]
  Melanin Amount Ratio (%): 48%
Mouse B16 melanoma cells [2]; [4]
  Melanin Amount Ratio (%): 20%
Mouse B16 melanoma cells [2]; [5]
  Melanin Amount Ratio (%): 15%

## CC(C)c1ccc(OP(=O)(O)O)cc1OP(=O)(O)O [Compound 2, 1,3-bisphosphonooxy-4-isopropylbenzene]
Mouse B16 melanoma cells [1]; [6]
  Cell Count (%): 99%
Mouse B16 melanoma cells [1]; [7]
  Cell Count (%): 95%
Mouse B16 melanoma cells [1]; [8]
  Cell Count (%): 103%
Mouse B16 melanoma cells [2]; [6]
  Melanin Amount Ratio (%): 47%
Mouse B16 melanoma cells [2]; [7]
  Melanin Amount Ratio (%): 16%
Mouse B16 melanoma cells [2]; [8]
  Melanin Amount Ratio (%): 13%

## CC(C)c1ccc(O)cc1O [Comparative Compound 2, 4-isopropylresorcinol]
Mouse B16 melanoma cells [1]; [9]
  Cell Count (%): 99%
Mouse B16 melanoma cells [1]; [10]
  Cell Count (%): 97%
Mouse B16 melanoma cells [1]; [11]
  Cell Count (%): 98%
Mouse B16 melanoma cells [2]; [9]
  Melanin Amount Ratio (%): 32%
Mouse B16 melanoma cells [2]; [10]
  Melanin Amount Ratio (%): 17%
Mouse B16 melanoma cells [2]; [11]
  Melanin Amount Ratio (%): 12%

## CCc1ccc(O)cc1O [Comparative Compound 1, 4-ethylresorcinol]
Mouse B16 melanoma cells [1]; [12]
  Cell Count (%): 101%
Mouse B16 melanoma cells [1]; [13]
  Cell Count (%): 102%
Mouse B16 melanoma cells [1]; [14]
  Cell Count (%): 93%
Mouse B16 melanoma cells [2]; [12]
  Melanin Amount Ratio (%): 69%
Mouse B16 melanoma cells [2]; [13]
  Melanin Amount Ratio (%): 24%
Mouse B16 melanoma cells [2]; [14]
  Melanin Amount Ratio (%): 16%

## CCc1ccc(OP(=O)(O)O)cc1OP(=O)(O)O [Compound 1, 1,3-bisphosphonooxy-4-ethylbenzene]
Mouse B16 melanoma cells [1]; [6]
  Cell Count (%): 101%
Mouse B16 melanoma cells [1]; [15]
  Cell Count (%): 108%
Mouse B16 melanoma cells [1]; [16]
  Cell Count (%): 113%
Mouse B16 melanoma cells [2]; [6]
  Melanin Amount Ratio (%): 62%
Mouse B16 melanoma cells [2]; [15]
  Melanin Amount Ratio (%): 25%
Mouse B16 melanoma cells [2]; [16]
  Melanin Amount Ratio (%): 16%

## Oc1ccc(C2CCCCC2)c(O)c1 [Comparative Compound 3, 4-cyclohexylresorcinol]
Mouse B16 melanoma cells [1]; [17]
  Cell Count (%): 99%
Mouse B16 melanoma cells [1]; [18]
  Cell Count (%): 98%
Mouse B16 melanoma cells [1]; [19]
  Cell Count (%): 76%
Mouse B16 melanoma cells [2]; [17]
  Melanin Amount Ratio (%): 43%
Mouse B16 melanoma cells [2]; [18]
  Melanin Amount Ratio (%): 22%
Mouse B16 melanoma cells [2]; [19]
  Melanin Amount Ratio (%): 17%
